{
  "source": "ChEMBL document CHEMBL4265894",
  "about": "“Developing potential Helicobacter pylori urease inhibitors from novel oxoindoline derivatives: Synthesis, biological evaluation and in silico study” (Bioorg Med Chem Lett, 2018)",
  "key": {"Helicobacter pylori": {"test_system": "Helicobacter pylori", "assay": "Antibacterial activity against Helicobacter pylori after 48 hrs", "format": "functional"}, "[1]": {"assay": "Cytotoxicity against HEK293T cells after 24 hrs by MTT assay", "format": "cell-based, HEK-293T", "settings": "human"}, "Urease": {"biological_target": "Urease (Helicobacter pylori, UniProt Q0PXQ5)", "sequence (Q0PXQ5 whole entry)": "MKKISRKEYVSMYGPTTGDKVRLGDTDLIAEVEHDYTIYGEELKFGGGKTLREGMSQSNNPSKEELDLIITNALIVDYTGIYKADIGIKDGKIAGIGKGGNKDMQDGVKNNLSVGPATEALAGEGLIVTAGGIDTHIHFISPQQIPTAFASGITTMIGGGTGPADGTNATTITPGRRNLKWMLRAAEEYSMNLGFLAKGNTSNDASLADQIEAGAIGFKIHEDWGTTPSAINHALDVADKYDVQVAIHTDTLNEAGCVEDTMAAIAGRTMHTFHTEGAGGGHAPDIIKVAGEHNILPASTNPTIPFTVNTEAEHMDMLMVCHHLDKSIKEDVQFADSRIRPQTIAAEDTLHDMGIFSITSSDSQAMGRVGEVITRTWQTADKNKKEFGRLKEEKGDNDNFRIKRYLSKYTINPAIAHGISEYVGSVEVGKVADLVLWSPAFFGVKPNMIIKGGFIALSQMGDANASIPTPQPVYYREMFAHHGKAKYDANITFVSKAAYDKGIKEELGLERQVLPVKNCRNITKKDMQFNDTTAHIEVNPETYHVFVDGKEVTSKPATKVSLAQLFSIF", "assay": "Inhibition of Helicobacter pylori urease after 50 mins by indophenol method"}, "[2]": {"assay": "Cytotoxicity against human LO2 cells after 24 hrs by MTT assay", "format": "cell-based, L02"}},
  "data": [
    {"smiles": "COc1ccc(C(=O)N/N=C2/C(=O)N(CC=C(C)C)c3ccccc32)cc1F", "values": [
      {"measurement": "MIC", "setting": "Helicobacter pylori", "result": 3.94, "unit": "µM"},
      {"measurement": "GI50 at 24 h", "setting": "[1]", "result": 169, "unit": "µM"},
      {"measurement": "IC50", "setting": "Urease", "result": 3.82, "unit": "µM"},
      {"measurement": "GI50 at 24 h", "setting": "[2]", "result": "> 200", "unit": "µM"}
    ]},
    {"smiles": "CC(C)=CCN1C(=O)/C(=N/NC(=O)c2cc(C)cc(C)c2)c2ccccc21", "values": [
      {"measurement": "MIC", "setting": "Helicobacter pylori", "result": 6.75, "unit": "µM"},
      {"measurement": "IC50", "setting": "Urease", "result": 4.38, "unit": "µM"}
    ]},
    {"smiles": "CC(C)=CCN1C(=O)/C(=N/NC(=O)c2cccc(Cl)c2)c2ccccc21", "values": [
      {"measurement": "MIC", "setting": "Helicobacter pylori", "result": 72.5, "unit": "µM"},
      {"measurement": "IC50", "setting": "Urease", "result": 38.1, "unit": "µM"}
    ]},
    {"smiles": "CC(C)=CCN1C(=O)/C(=N/NC(=O)c2ccc(C(C)C)cc2)c2ccccc21", "values": [
      {"measurement": "MIC", "setting": "Helicobacter pylori", "result": 27.5, "unit": "µM"},
      {"measurement": "IC50", "setting": "Urease", "result": 14.9, "unit": "µM"}
    ]},
    {"smiles": "CC(C)=CCN1C(=O)/C(=N/NC(=O)c2ccc(Br)cc2)c2ccccc21", "values": [
      {"measurement": "MIC", "setting": "Helicobacter pylori", "result": 137, "unit": "µM"},
      {"measurement": "IC50", "setting": "Urease", "result": 83.9, "unit": "µM"}
    ]},
    {"smiles": "COc1cccc(C(=O)N/N=C2/C(=O)N(CC=C(C)C)c3ccccc32)c1", "values": [
      {"measurement": "MIC", "setting": "Helicobacter pylori", "result": 15.2, "unit": "µM"},
      {"measurement": "IC50", "setting": "Urease", "result": 8.21, "unit": "µM"}
    ]},
    {"smiles": "CC(C)=CCN1C(=O)/C(=N/NC(=O)c2ccc(C(F)(F)F)cc2)c2ccccc21", "values": [
      {"measurement": "MIC", "setting": "Helicobacter pylori", "result": 83.9, "unit": "µM"},
      {"measurement": "IC50", "setting": "Urease", "result": 44.1, "unit": "µM"}
    ]},
    {"smiles": "CC(C)=CCN1C(=O)/C(=N/Nc2ccccc2)c2ccccc21", "values": [
      {"measurement": "MIC", "setting": "Helicobacter pylori", "result": "> 200", "unit": "µM"},
      {"measurement": "GI50 at 24 h", "setting": "[1]", "result": "> 200", "unit": "µM"},
      {"measurement": "IC50", "setting": "Urease", "result": "> 300", "unit": "µM"},
      {"measurement": "GI50 at 24 h", "setting": "[2]", "result": "> 200", "unit": "µM"}
    ]},
    {"smiles": "COc1cc(OC)cc(C(=O)N/N=C2/C(=O)N(CC=C(C)C)c3ccccc32)c1", "values": [
      {"measurement": "MIC", "setting": "Helicobacter pylori", "result": 1.96, "unit": "µM"},
      {"measurement": "GI50 at 24 h", "setting": "[1]", "result": 176, "unit": "µM"},
      {"measurement": "IC50", "setting": "Urease", "result": 1.35, "unit": "µM"},
      {"measurement": "GI50 at 24 h", "setting": "[2]", "result": 188, "unit": "µM"}
    ]},
    {"smiles": "CC(C)=CCN1C(=O)/C(=N/NC(=O)c2ccc(F)cc2)c2ccccc21", "values": [
      {"measurement": "MIC", "setting": "Helicobacter pylori", "result": "> 200", "unit": "µM"},
      {"measurement": "GI50 at 24 h", "setting": "[1]", "result": 195, "unit": "µM"},
      {"measurement": "IC50", "setting": "Urease", "result": 154, "unit": "µM"},
      {"measurement": "GI50 at 24 h", "setting": "[2]", "result": "> 200", "unit": "µM"}
    ]},
    {"smiles": "COc1ccc(C(=O)N/N=C2/C(=O)N(CC=C(C)C)c3ccccc32)cc1", "values": [
      {"measurement": "MIC", "setting": "Helicobacter pylori", "result": 10.3, "unit": "µM"},
      {"measurement": "IC50", "setting": "Urease", "result": 6.99, "unit": "µM"}
    ]},
    {"smiles": "CC(C)=CCN1C(=O)/C(=N/NC(=O)c2ccc(C)cc2)c2ccccc21", "values": [
      {"measurement": "MIC", "setting": "Helicobacter pylori", "result": 58.1, "unit": "µM"},
      {"measurement": "IC50", "setting": "Urease", "result": 29.9, "unit": "µM"}
    ]},
    {"smiles": "COc1ccccc1C(=O)N/N=C1/C(=O)N(CC=C(C)C)c2ccccc21", "values": [
      {"measurement": "MIC", "setting": "Helicobacter pylori", "result": 19.5, "unit": "µM"},
      {"measurement": "IC50", "setting": "Urease", "result": 11.7, "unit": "µM"}
    ]},
    {"smiles": "CC(C)=CCN1C(=O)/C(=N/NC(=O)c2cccc(Br)c2)c2ccccc21", "values": [
      {"measurement": "MIC", "setting": "Helicobacter pylori", "result": 50.5, "unit": "µM"},
      {"measurement": "IC50", "setting": "Urease", "result": 27.6, "unit": "µM"}
    ]},
    {"smiles": "CC(C)=CCN1C(=O)/C(=N/NC(=O)c2ccc(C(C)(C)C)cc2)c2ccccc21", "values": [
      {"measurement": "MIC", "setting": "Helicobacter pylori", "result": 30.8, "unit": "µM"},
      {"measurement": "IC50", "setting": "Urease", "result": 19.5, "unit": "µM"}
    ]},
    {"smiles": "CC(C)=CCN1C(=O)/C(=N/NC(=O)c2ccccc2)c2ccccc21", "values": [
      {"measurement": "MIC", "setting": "Helicobacter pylori", "result": 171, "unit": "µM"},
      {"measurement": "IC50", "setting": "Urease", "result": 129, "unit": "µM"}
    ]},
    {"smiles": "CC(C)=CCN1C(=O)/C(=N/NC(=O)c2cccc(C(F)(F)F)c2)c2ccccc21", "values": [
      {"measurement": "MIC", "setting": "Helicobacter pylori", "result": 108, "unit": "µM"},
      {"measurement": "IC50", "setting": "Urease", "result": 65.8, "unit": "µM"}
    ]},
    {"smiles": "COc1ccc(C(=O)N/N=C2/C(=O)N(CC=C(C)C)c3ccccc32)cc1OC", "values": [
      {"measurement": "MIC", "setting": "Helicobacter pylori", "result": 0.48, "unit": "µM"},
      {"measurement": "GI50 at 24 h", "setting": "[1]", "result": 184, "unit": "µM"},
      {"measurement": "IC50", "setting": "Urease", "result": 0.71, "unit": "µM"},
      {"measurement": "GI50 at 24 h", "setting": "[2]", "result": 178, "unit": "µM"}
    ]},
    {"smiles": "CC(C)=CCN1C(=O)/C(=N/NC(=O)c2ccc(Oc3ccccc3)cc2)c2ccccc21", "values": [
      {"measurement": "MIC", "setting": "Helicobacter pylori", "result": 41.8, "unit": "µM"},
      {"measurement": "IC50", "setting": "Urease", "result": 22.7, "unit": "µM"}
    ]},
    {"smiles": "CC(C)=CCN1C(=O)/C(=N/NC(=O)c2ccc(Cl)cc2)c2ccccc21", "values": [
      {"measurement": "MIC", "setting": "Helicobacter pylori", "result": 185, "unit": "µM"},
      {"measurement": "GI50 at 24 h", "setting": "[1]", "result": "> 200", "unit": "µM"},
      {"measurement": "IC50", "setting": "Urease", "result": 143, "unit": "µM"},
      {"measurement": "GI50 at 24 h", "setting": "[2]", "result": "> 200", "unit": "µM"}
    ]},
    {"smiles": "CC(=O)NO", "note": "[ACETOHYDROXAMIC ACID]", "values": [
      {"measurement": "IC50", "setting": "Urease", "result": 17.2, "unit": "µM"}
    ]},
    {"smiles": "Cc1ncc([N+](=O)[O-])n1CCO", "note": "[METRONIDAZOLE]", "values": [
      {"measurement": "MIC", "setting": "Helicobacter pylori", "result": 31.3, "unit": "µM"}
    ]}
  ]
}
